{"source": "patent US20230082555A1", "about": "“Composition for Medium” (Kataoka Corporation, priority 2019, published 2023)", "system": "human fibroblasts", "assay": "Presence or absence of fatty acids in serum-free induction medium, Ucp1 and Ckmt1 by QRT-PCR (Test Example E)", "type": "cell-based", "details": "brown adipocytes induced from fibroblasts; FIGS. 8 and 9", "experimental": "After the human fibroblasts reached 80% to 90% confluency, the medium in the dish was replaced with SFBAM which is serum-free or SFBAM in which albumin and fatty acid components were changed to the combinations shown in Table 10 of the compounds shown in Table 9, both of which contain all the compounds shown in Table 3, and the human fibroblasts were cultured in said respective media for three weeks (Examples 11 to 14). The medium was changed every three days. Thereafter, the expression amounts of marker genes, Ucp1 and Ckmt1, specific for brown adipose tissue were quantified by QRT-PCR. Symbol 1 (control) in the figures represents the result in SFBAM without the compounds shown in Table 3 necessary for induction into brown adipocytes.", "data": [{"substance": "fatty acid-unbound albumin: Fatty acid-free albumin, in which a fatty acid is removed from an albumin (017-15146, FUJIFILM Wako)", "values": [{"measurement": "Expression levels of Ucp1 genes versus induction with fatty acid-bound albumin", "value": "much higher"}]}]}
